In US8883470B2, “Fermentation of carbohydrate” (Anitox Corporation, priority 2009, dated 2014):
Where two headings read alike, the source gives them in different places.

Columns and labels:
Lactobacillus [1] = settings: during fermentation; cited from earlier work
Lactobacillus [2] = settings: 600 mg/L, cited from earlier work
Yeast [3] = settings: 8 g/L; beet molasses batch fermentation; cited from earlier work
Yeast [4] = settings: cited from earlier work
yeast populations = settings: 100 to 400 mg/L; cited from earlier work
Yeast [5] = system: Yeast
Protocol: (§5) After 24 h, 30 g of corn from each treatment was finely ground and added to glass fermenters with water, enzyme and yeast as described below. Lactobacillus plantarum (B-4496) grown in MRS broth was added to the fermentation bottles (0.1 ml of 6.2×10^10 cfu/mL). Samples were taken after 72 hours fermentation for yeast and Lactobacillus counts.

Wild Lactobacillus = system: Wild Lactobacillus
Protocol: (§1) Wild Lactobacillus and yeast/mold profile were determined in four studies using corn treated with 0 (control), 0.45 and 0.90 Kg/MT Formaldehyde (HCHO). Ground corn and water were mixed and incubated at room temperature (21-23° C.) in an anaerobic environment for 24 hours. To 5 gr of ground corn 45 ml of Butterfield was added and incubated overnight in a closed container while stirring at room temperature. After incubation, samples were taken to enumerate wild yeast/mold and Lactobacillus.

wild yeast/mold = system: wild yeast/mold
Protocol: as §1

[6] = system: Lactobacillus plantarum (B-4496)
Protocol: as §5

Yeast [7] = system: Yeast; remark: listed apart in the source
Protocol: (§2) Ethanol production and microbiological profile were analyzed in four fermentation studies using corn treated with 0 (control), 0.45 and 0.90 Kg/MT Formaldehyde. Ground corn and water were mixed and incubated at room temperature in a air-tight 250-ml fermenter jars for 6 hours. This was done in order to increase the naturally occurring Lactobacillus in corn. Previous studies have shown that the level of Lactobacillus is less than 100 cfu/gr in corn. The other reagents were added into the fermenters as described in the following table.
(§3) After the addition of all the reagents, fermenters were sealed with a cap containing a water trap. Fermenters were kept under constant stirring (low speed) at room temperature (21-23° C.) for 72 hours before sampling for yeast, Lactobacillus and alcohol production. Lactobacillus counts were determined on MRS broth containing 1.5% Difco™ Agar. Plates were incubated in an anaerobic chamber at 37-C for 48 hours and colonies enumerated. Yeast counts were determined on PDA plates. Plates were incubated at 27° C. for 48 hours and colonies enumerated. Alcohol was determined by FT-IR (FOSS system).

Lactobacillus [8] = system: Lactobacillus
Protocol: as §2, §3

Yeast [9] = system: Yeast; remark: listed apart in the source
Protocol: (§4) Whole corn obtained from a commercial source was treated with formalin (37% formaldehyde solution) at 0, 0.9, 1.8 and 2.7 kg/MT. After 24 h, 30 g of corn from each treatment was finely ground and added to glass fermenters with water, enzyme and yeast as described below. Lactobacillus plantarum (B-4496) grown in MRS broth was added to the fermentation bottles (0.2 ml of 6.2×10^5 cfu/g). Samples were taken after 72 hours fermentation for yeast and Lactobacillus counts. The whole content of the fermentations bottles were centrifuged for 30 minutes at 5000 rpm, filtered through cheesecloth and through a 0.45 u tilter to quantify ethanol production. Treatments are listed on the following table

[10] = system: Lactobacillus plantarum (B-4496); settings: control also 0
Protocol: as §4

NC(N)=O.OO [UHP, Urea hydrogen peroxide]
bactericidal activity against Lactobacillus (Lactobacillus [1]): excellent bactericidal activity

O=C(O)CCC(=O)O [Succinic acid]
reduction of Lactobacillus concentrations (Lactobacillus [2]; by itself): 78%
reduction of Lactobacillus concentrations (Lactobacillus [2]; in the presence of ethanol): up to 96%

CC(O)C(=O)O (centres unmarked) [lactic acid]
reduction of alcohol production rate (Yeast [3]): 80%
reduction of yeast viability (Yeast [3]): 95%

virginiamycin
inhibition of the yeast (Yeast [4]): does not significantly inhibit the yeast

O=S(O)O [sulfite]
effect on yeast populations (yeast populations): did not affect yeast populations

C=O [Formaldehyde, formaldehyde]
Yeast (cfu/ml) 72 h (Yeast [5]; 0.9 kg/MT): 8.8 × 10^8 cfu/ml
Yeast (cfu/ml) 72 h (Yeast [5]; 1.8 kg/MT): 6.6 × 10^8 cfu/ml
Yeast (cfu/ml) 72 h (Yeast [5]; 2.7 kg/MT): 8.0 × 10^8 cfu/ml
Lactobacillus (cfu/gr) after 24-h Incubation (Wild Lactobacillus; 0.45 kg/MT, Study 1): 4.0 × 10^5 cfu/gr
Lactobacillus (cfu/gr) after 24-h Incubation (Wild Lactobacillus; 0.45 kg/MT, Study 2): 9.3 × 10^5 cfu/gr
Lactobacillus (cfu/gr) after 24-h Incubation (Wild Lactobacillus; 0.45 kg/MT, Study 3): 2.9 × 10^4 cfu/gr
Lactobacillus (cfu/gr) after 24-h Incubation (Wild Lactobacillus; 0.45 kg/MT, Study 4): 7.7 × 10^5 cfu/gr
Lactobacillus (cfu/gr) after 24-h Incubation (Wild Lactobacillus; 0.9 kg/MT, Study 1): 6.2 × 10^4 cfu/gr
Lactobacillus (cfu/gr) after 24-h Incubation (Wild Lactobacillus; 0.9 kg/MT, Study 2): 1.2 × 10^4 cfu/gr
Lactobacillus (cfu/gr) after 24-h Incubation (Wild Lactobacillus; 0.9 kg/MT, Study 3): 9.0 × 10^3 cfu/gr
Lactobacillus (cfu/gr) after 24-h Incubation (Wild Lactobacillus; 0.9 kg/MT, Study 4): 8.1 × 10^4 cfu/gr
Yeast (cfu/gr) after 24-h Incubation (wild yeast/mold; 0.45 kg/MT, Study 1): 3.0 × 10^5 cfu/gr
Yeast (cfu/gr) after 24-h Incubation (wild yeast/mold; 0.45 kg/MT, Study 2): 7.0 × 10^5 cfu/gr
Yeast (cfu/gr) after 24-h Incubation (wild yeast/mold; 0.45 kg/MT, Study 3): 1.6 × 10^5 cfu/gr
Yeast (cfu/gr) after 24-h Incubation (wild yeast/mold; 0.45 kg/MT, Study 4): 3.2 × 10^5 cfu/gr
Yeast (cfu/gr) after 24-h Incubation (wild yeast/mold; 0.9 kg/MT, Study 1): 7.6 × 10^4 cfu/gr
Yeast (cfu/gr) after 24-h Incubation (wild yeast/mold; 0.9 kg/MT, Study 2): 5.6 × 10^6 cfu/gr
Yeast (cfu/gr) after 24-h Incubation (wild yeast/mold; 0.9 kg/MT, Study 3): 2.0 × 10^3 cfu/gr
Yeast (cfu/gr) after 24-h Incubation (wild yeast/mold; 0.9 kg/MT, Study 4): 2.6 × 10^5 cfu/gr
Lactobacillus (cfu/ml) 72 h ([6]; 0.9 kg/MT): 9.8 × 10^7 cfu/ml
Lactobacillus (cfu/ml) 72 h ([6]; 1.8 kg/MT): 4.7 × 10^7 cfu/ml
Lactobacillus (cfu/ml) 72 h ([6]; 2.7 kg/MT): 3.7 × 10^7 cfu/ml
decrease in cfu's of Lactobacillus ([6]; Lactobacillus added at higher concentrations): 1 log
Yeast (cfu/gr) after 72-h Fermentation (Yeast [7]; 0.45 kg/MT, Study 9): 9.5 × 10^8 cfu/gr
Yeast (cfu/gr) after 72-h Fermentation (Yeast [7]; 0.45 kg/MT, Study 10): 1.2 × 10^9 cfu/gr
Yeast (cfu/gr) after 72-h Fermentation (Yeast [7]; 0.45 kg/MT, Study 11): 4.7 × 10^9 cfu/gr
Yeast (cfu/gr) after 72-h Fermentation (Yeast [7]; 0.45 kg/MT, Study 12): 1.8 × 10^9 cfu/gr
Yeast (cfu/gr) after 72-h Fermentation (Yeast [7]; 0.9 kg/MT, Study 9): 7.4 × 10^8 cfu/gr
Yeast (cfu/gr) after 72-h Fermentation (Yeast [7]; 0.9 kg/MT, Study 10): 1.1 × 10^9 cfu/gr
Yeast (cfu/gr) after 72-h Fermentation (Yeast [7]; 0.9 kg/MT, Study 11): 3.6 × 10^9 cfu/gr
Yeast (cfu/gr) after 72-h Fermentation (Yeast [7]; 0.9 kg/MT, Study 12): 1.8 × 10^9 cfu/gr
Lactobacillus (cfu/gr) after 72-h Fermentation (Lactobacillus [8]; 0.45 kg/MT, Study 9): 8.5 × 10^8 cfu/gr
Lactobacillus (cfu/gr) after 72-h Fermentation (Lactobacillus [8]; 0.45 kg/MT, Study 10): 5.2 × 10^8 cfu/gr
Lactobacillus (cfu/gr) after 72-h Fermentation (Lactobacillus [8]; 0.45 kg/MT, Study 12): 8.9 × 10^8 cfu/gr
Lactobacillus (cfu/gr) after 72-h Fermentation (Lactobacillus [8]; 0.9 kg/MT, Study 9): 7.4 × 10^8 cfu/gr
Lactobacillus (cfu/gr) after 72-h Fermentation (Lactobacillus [8]; 0.9 kg/MT, Study 10): 4.3 × 10^8 cfu/gr
Lactobacillus (cfu/gr) after 72-h Fermentation (Lactobacillus [8]; 0.9 kg/MT, Study 12): 9.4 × 10^8 cfu/gr
Yeast (cfu/ml) 72 h (Yeast [9]; 0.9 kg/MT): 9.50 × 10^8 cfu/ml
Yeast (cfu/ml) 72 h (Yeast [9]; 1.8 kg/MT): 6.60 × 10^8 cfu/ml
Yeast (cfu/ml) 72 h (Yeast [9]; 2.7 kg/MT): 4.20 × 10^8 cfu/ml
Lactobacillus (cfu/ml) 72 h ([10]; 0.9 kg/MT): 0 cfu/ml
Lactobacillus (cfu/ml) 72 h ([10]; 1.8 kg/MT): 0 cfu/ml
Lactobacillus (cfu/ml) 72 h ([10]; 2.7 kg/MT): 0 cfu/ml
